Species: Rattus norvegicus
Test: DrugMatrix - Regimen: Daily Repeat
Assay type: toxicity, organism-based, Sprague-Dawley
Design: regimen Daily Repeat, gender Male, age 6-8 weeks
Conditions: in vivo, iv, 0 mg/kg, dose level Control, vehicle 100 % SALINE; for ABSOLUTE BASOPHIL / ABSOLUTE EOSINOPHIL / ABSOLUTE LYMPHOCYTE / ABSOLUTE MONOCYTE / ABSOLUTE SEGMENTED NEUTROPHIL / BASOPHIL / EOSINOPHIL / ERYTHROCYTE COUNT / HEMATOCRIT / HEMOGLOBIN / LEUKOCYTE COUNT / LYMPHOCYTE / MEAN CORPUSCULAR HEMOGLOBIN / MEAN CORPUSCULAR HEMOGLOBIN CONCENTRATION / MEAN CORPUSCULAR VOLUME / MONOCYTE / NEUTROPHIL / NUCLEATED RED BLOOD CELLS / PLATELET COUNT: tissue Blood; for ALANINE AMINOTRANSFERASE / ALBUMIN / ALKALINE PHOSPHATASE / ASPARTATE AMINOTRANSFERASE / BLOOD UREA NITROGEN / CARBON DIOXIDE / CHLORIDE / CHOLESTEROL / CREATINE PHOSPHOKINASE / CREATININE / GLUCOSE / LACTATE DEHYDROGENASE / LIPASE / PHOSPHORUS / POTASSIUM / SODIUM / TOTAL BILIRUBIN / TOTAL PROTEIN / URIC ACID: tissue Plasma

C[N+](C)(C)CCOC(=O)CCC(=O)OCC[N+](C)(C)C.[Cl-].[Cl-] [SUCCINYLCHOLINE CHLORIDE]
ABSOLUTE BASOPHIL (72 h, time 3 day): 0 CELLS/uL | ABSOLUTE EOSINOPHIL (72 h, time 3 day): 193.5 CELLS/uL | ABSOLUTE LYMPHOCYTE (72 h, time 3 day): 15717.5 CELLS/uL | ABSOLUTE MONOCYTE (72 h, time 3 day): 389.33 CELLS/uL | ABSOLUTE SEGMENTED NEUTROPHIL (72 h, time 3 day): 1883 CELLS/uL | BASOPHIL (72 h, time 3 day): 0% | EOSINOPHIL (72 h, time 3 day): 1.17% | ERYTHROCYTE COUNT (72 h, time 3 day): 5.68 x10E6/uL | HEMATOCRIT (72 h, time 3 day): 35.83% | HEMOGLOBIN (72 h, time 3 day): 13.48 G/DL | LEUKOCYTE COUNT (72 h, time 3 day): 18.18 x10E3/uL | LYMPHOCYTE (72 h, time 3 day): 86.67% | MEAN CORPUSCULAR HEMOGLOBIN (72 h, time 3 day): 23.8 pg | MEAN CORPUSCULAR HEMOGLOBIN CONCENTRATION (72 h, time 3 day): 37.68 G/DL | MEAN CORPUSCULAR VOLUME (72 h, time 3 day): 63.27 fL | MONOCYTE (72 h, time 3 day): 2.17% | NEUTROPHIL (72 h, time 3 day): 10% | NUCLEATED RED BLOOD CELLS (72 h, time 3 day): 0 /100WBC | PLATELET COUNT (72 h, time 3 day): 1186.33 x10E3/uL | ALANINE AMINOTRANSFERASE (72 h, time 3 day): 68.5 u/L | ALBUMIN (72 h, time 3 day): 4.37 G/DL | ALKALINE PHOSPHATASE (72 h, time 3 day): 396.33 u/L | ASPARTATE AMINOTRANSFERASE (72 h, time 3 day): 92.5 u/L | BLOOD UREA NITROGEN (72 h, time 3 day): 18 mg/dL | CARBON DIOXIDE (72 h, time 3 day): 24.33 mmol/L | CHLORIDE (72 h, time 3 day): 102.4 MEQ/L | CHOLESTEROL (72 h, time 3 day): 67.17 mg/dL | CREATINE PHOSPHOKINASE (72 h, time 3 day): 378.67 u/L | CREATININE (72 h, time 3 day): 0.19 mg/dL | GLUCOSE (72 h, time 3 day): 178.33 mg/dL | LACTATE DEHYDROGENASE (72 h, time 3 day): 245.17 u/L | LIPASE (72 h, time 3 day): 9.2 u/L | PHOSPHORUS (72 h, time 3 day): 12.37 mg/dL | POTASSIUM (72 h, time 3 day): 6.48 MEQ/L | SODIUM (72 h, time 3 day): 143.28 MEQ/L | TOTAL BILIRUBIN (72 h, time 3 day): 0.23 mg/dL | TOTAL PROTEIN (72 h, time 3 day): 5.65 G/DL | URIC ACID (72 h, time 3 day): 1.6 mg/dL | ABSOLUTE BASOPHIL (120 h, time 5 day): 0 CELLS/uL | ABSOLUTE EOSINOPHIL (120 h, time 5 day): 27.5 CELLS/uL | ABSOLUTE LYMPHOCYTE (120 h, time 5 day): 13593.17 CELLS/uL | ABSOLUTE MONOCYTE (120 h, time 5 day): 576 CELLS/uL | ABSOLUTE SEGMENTED NEUTROPHIL (120 h, time 5 day): 1836.67 CELLS/uL | BASOPHIL (120 h, time 5 day): 0% | EOSINOPHIL (120 h, time 5 day): 0.17% | ERYTHROCYTE COUNT (120 h, time 5 day): 5.99 x10E6/uL | HEMATOCRIT (120 h, time 5 day): 37.42% | HEMOGLOBIN (120 h, time 5 day): 13.78 G/DL | LEUKOCYTE COUNT (120 h, time 5 day): 16.03 x10E3/uL | LYMPHOCYTE (120 h, time 5 day): 85.17% | MEAN CORPUSCULAR HEMOGLOBIN (120 h, time 5 day): 23.08 pg | MEAN CORPUSCULAR HEMOGLOBIN CONCENTRATION (120 h, time 5 day): 36.83 G/DL | MEAN CORPUSCULAR VOLUME (120 h, time 5 day): 62.6 fL | MONOCYTE (120 h, time 5 day): 3.5% | NEUTROPHIL (120 h, time 5 day): 11.17% | NUCLEATED RED BLOOD CELLS (120 h, time 5 day): 0 /100WBC | PLATELET COUNT (120 h, time 5 day): 1352.5 x10E3/uL | ALANINE AMINOTRANSFERASE (120 h, time 5 day): 49.83 u/L | ALBUMIN (120 h, time 5 day): 4.25 G/DL | ALKALINE PHOSPHATASE (120 h, time 5 day): 331.33 u/L | ASPARTATE AMINOTRANSFERASE (120 h, time 5 day): 86.17 u/L | BLOOD UREA NITROGEN (120 h, time 5 day): 19.5 mg/dL | CARBON DIOXIDE (120 h, time 5 day): 26.67 mmol/L | CHLORIDE (120 h, time 5 day): 103 MEQ/L | CHOLESTEROL (120 h, time 5 day): 67.5 mg/dL | CREATINE PHOSPHOKINASE (120 h, time 5 day): 346.17 u/L | CREATININE (120 h, time 5 day): 0.22 mg/dL | GLUCOSE (120 h, time 5 day): 170.67 mg/dL | LACTATE DEHYDROGENASE (120 h, time 5 day): 405.5 u/L | LIPASE (120 h, time 5 day): 8.83 u/L | PHOSPHORUS (120 h, time 5 day): 11.3 mg/dL | POTASSIUM (120 h, time 5 day): 6.06 MEQ/L | SODIUM (120 h, time 5 day): 143.4 MEQ/L | TOTAL BILIRUBIN (120 h, time 5 day): 0.17 mg/dL | TOTAL PROTEIN (120 h, time 5 day): 6.22 G/DL | URIC ACID (120 h, time 5 day): 1.63 mg/dL
